Measurements reported in US8822410B2, “Tympanic membrane permeating ear drops and uses thereof” (Children's Medical Center Corporation, priority 2008, dated 2014).

Key:
[1] = pH of ciprofloxacin solutions; format: physicochemical; details: 1% ciprofloxacin solution
H. influenza = details: middle ear infections; cited from earlier work
S. pneumoniae = details: middle ear infections; cited from earlier work

O=C(O)c1cn(C2CC2)c2cc(N3CCNCC3)c(F)cc2c1=O [ciprofloxacin]
pH of ciprofloxacin solution [1]: 3-4 | minimum inhibitory concentration (H. influenza): about 4 μg/mL | minimum inhibitory concentration (S. pneumoniae): about 4 μg/mL
